Reference: US5232684A, “Labelled resiniferatoxin, compositions thereof, and methods for using the same” (priority 1990, dated 1993)
“Also recorded” adds a separate entry of the source. Read-outs that look alike come from different tables or passages of the source.

Experiments:
[1] = target: T1, capsaicin receptor (pig DRG membranes) (Sus scrofa, UniProt F1RLJ0); experiment: biochemical; assay type: binding; conditions: for inhibition of [^3H]RTX binding: 30 uM; for inhibition of / competition for [^3H]RTX binding (words): biologically effective concentrations, Table 1, 10 μM, 10 µM; for inhibition of specific [^3H]RTX binding: Table 1, 200 nM or 2 μM
T1 construct: tissue Mt; Airy Locker Co., Mt; Airy, MD; host or cells: pig dorsal root ganglia
Procedure: (§1) Membrane preparations are obtained from the DRG and Gasser ganglia of female Sprague-Dawley rats (250-300 g); animals are sacrificed by decapitation under ether anesthesia, the ganglia removed and collected into ice-cold disrupting buffer (5 mM KCl, 5.8 mM NaCl, 2 mM MgCl2, 12 mM glucose, 137 mM sucrose, 10 mM HEPES, 5 mM DTT, 2 mM EGTA, pH 7.4). After homogenization with the aid of a Polytron tissue homogenizer, samples are filtered over surgical gauze and then washed twice with the same buffer and stored at -70° C. Particulate fractions are obtained from other rat neural tissues (cerebellum, spinal cord, preoptic region, striatum, substantia nigra) and from DRG of pigs (Mt. Airy Locker Co., Mt. Airy, MD), sheep, cows (kindly provided by Dr. Solomon, USDA, Beltsville, MD), and chickens (Truslow Farms, Chesterton, MD) by a similar procedure.
Subcellular fractions are prepared by a modification of the method of Bastiaensen et al. (Bastiaensen, E., Miserez, B. and De Potter, W., Subcellular fractionation of bovine ganglion stellatum: co-storage of noradrenaline, Met-enkephalin and neuropeptide Y in large `dense-cored` vesicles, Brain Res., 442 (1988) 124-130. ) Briefly: DRG are dissected free from capsule, cut into small pieces with scissors, and then homogenized with a teflon pestle (20 strokes) in ice-cold 0.25 M sucrose/ 20 mM Tris-Cl (pH 7.4) buffer. The homogenate is filtered over surgical gauze; it is then centrifuged for 10 min at 2000 gmax, giving a pellet P1, and again at 10 000 gmax for 15 min giving a pellet P2. The P1 and P2 pellets are saved as nuclear and mitochondrial fractions for binding studies. The resulting supernatant is further centrifuged at 50 000 gmax for 60 min, and then the pellet is harvested as the plasma-membrane enriched microsomal fraction.
(§2) The binding assays are carried out in a volume of 250 ul, containing assay buffer (same as the disrupting buffer but omitting DTT and EGTA and including 0.75 mM CaCl2), 26-30 ug of membrane protein and 0.25 mg/ml bovine serum albumin. […] Tubes are kept on ice while the additions are made. The assay mixture is incubated for 10 min at 37° C.; it is then cooled on ice. 150 ul of the mixture is pipetted onto Whatman GF/C or GF/F glass fiber filters presoaked with 10 mg/ml bovine serum albumin in 20 mM Tris-Cl (pH 7.4) and filtered immediately. An aliquot of 50 ul of the mixture is removed to determine total radioactivity. The filters are washed with 100 ml of ice-cold 20 mM Tris-Cl, pH 7 4, containing 0.1 mg/ml bovine serum albumin, and the bound radioactivity is determined by scintillation counting. Non-specific binding is determined in the presence of 100-1000 nM non-radioactive RTX.
(§3) Binding data from saturation experiments using increasing concentrations of hot ligand are analyzed using the collection of computer programs described by McPherson (McPherson, G.A., Analysis of radioligand binding experiments: a collection of computer programs for the IBM PC, J.Pharmacol.Methods, 14 (1985) 213-228).
(§4) Scatchard and Hill transformations are performed by the Equilibrium Binding Data Analysis program referred to as EBDA. Data are further analyzed by the curvilinear regression program LIGAND (Munson, R.J. and Rodbard, D., LIGAND: a versatile computerized approach for characterization of ligand-binding systems, Anal.Biochem, 107 (1980) 220-239).
RTX binding is also analyzed in the presence of a fixed, low (60 pM or 300 pM) concentration of [^3 H]RTX and increasing concentrations of non-radioactive RTX or other ligand.

[2] = target: T2, capsaicin receptor (rat Gasser ganglia) (Rattus norvegicus, UniProt O35433); experiment: biochemical; assay type: binding; conditions: for activity at 30 µM: read-out: % of specific [^3H]RTX binding measured in the absence of the tested compound ± SEM
T2 construct: from tissue; host or cells: Gasser ganglia of female Sprague-Dawley rats
Procedure: as §1, §2, §3, §4
(§5) RTX binding is also analyzed in the presence of a fixed, low (60 pM or 300 pM) concentration of [^3 H]RTX and increasing concentrations of non-radioactive RTX or other ligand. […] The Ki value for RTX is calculated from the relationship Ki =ID50 -L; the Ki values for other ligands are calculated from the general form of the equation (Cheng, Y.C. and Prusoff, W.H., Relation between the inhibition constant (Ki) and the concentration of inhibitor which causes 50 per cent inhibition (I50) of an enzymatic reaction, Biochem. Pharmacol., 22 (1973) 3099-3108) Ki =IC50 /(1+L/Kd) where L=concentration of labelled ligand and Kd =dissociation constant of radioactive ligand as determined in the saturation experiments using variable concentrations of hot ligand. Comparison of the quality of fit using single and multiple site competition models is performed by the LIGAND program.
Gasser ganglia represents the […] homolog of the dorsal root ganglia.

[3] = tested on: capsaicin desensitization of sensory fibers; conditions: cited from earlier work
[4] = target: T3, capsaicin receptor (rat DRG membranes) (Rattus norvegicus, UniProt O35433); experiment: biochemical; assay type: binding; conditions: for activity at 0.2 µM: 10 min, read-out: % of specific [^3H]RTX binding measured in the absence of the tested compound ± SEM
T3 construct: membrane preparations from dorsal root ganglia (DRG) of female Sprague-Dawley rats; from tissue; host or cells: dorsal root ganglia of female Sprague-Dawley rats
Procedure: as §1, §2, §3, §4, §5
[^3 H]RTX binding is examined using membrane preparations from dorsal root ganglia (DRG) of female Sprague-Dawley rats.

[5] = tested on: mitochondrial NADH-Coenzyme Q oxidoreductase; conditions: high capsaicin concentrations; cited from earlier work
[6] = tested on: protein kinase C; experiment: [^3H]phorbol 12,13-dibutyrate binding, rat DRG membranes
From the text: The side chain at C20 is essential for the capsaicin-like 25 activity of RTX (Szallasi, A., Sharkey, N.A. and Blumberg, P.M., Structure-activity analysis of resiniferatoxin analogs, Phytotherapy Res., 6: 253-257, 1990).

[7] = tested on: rats; conditions: 300 ug/kg RTX s.c.; cited from earlier work
[8] = RTX versus capsaicin, cited from earlier work
[9] = RTX versus capsaicin; cited from earlier work
[10] = target: protein kinase C; experiment: [^3H]PDBu binding, pig DRG membranes; conditions: read-out: Kd for [^3H]PDBu binding to membrane preparations
[11] = 10 min, pig DRG, 30 μM, read-out: % of specific [^3H]RTX binding measured in the absence of the tested compound ± SEM

T2 sequence (O35433 whole entry): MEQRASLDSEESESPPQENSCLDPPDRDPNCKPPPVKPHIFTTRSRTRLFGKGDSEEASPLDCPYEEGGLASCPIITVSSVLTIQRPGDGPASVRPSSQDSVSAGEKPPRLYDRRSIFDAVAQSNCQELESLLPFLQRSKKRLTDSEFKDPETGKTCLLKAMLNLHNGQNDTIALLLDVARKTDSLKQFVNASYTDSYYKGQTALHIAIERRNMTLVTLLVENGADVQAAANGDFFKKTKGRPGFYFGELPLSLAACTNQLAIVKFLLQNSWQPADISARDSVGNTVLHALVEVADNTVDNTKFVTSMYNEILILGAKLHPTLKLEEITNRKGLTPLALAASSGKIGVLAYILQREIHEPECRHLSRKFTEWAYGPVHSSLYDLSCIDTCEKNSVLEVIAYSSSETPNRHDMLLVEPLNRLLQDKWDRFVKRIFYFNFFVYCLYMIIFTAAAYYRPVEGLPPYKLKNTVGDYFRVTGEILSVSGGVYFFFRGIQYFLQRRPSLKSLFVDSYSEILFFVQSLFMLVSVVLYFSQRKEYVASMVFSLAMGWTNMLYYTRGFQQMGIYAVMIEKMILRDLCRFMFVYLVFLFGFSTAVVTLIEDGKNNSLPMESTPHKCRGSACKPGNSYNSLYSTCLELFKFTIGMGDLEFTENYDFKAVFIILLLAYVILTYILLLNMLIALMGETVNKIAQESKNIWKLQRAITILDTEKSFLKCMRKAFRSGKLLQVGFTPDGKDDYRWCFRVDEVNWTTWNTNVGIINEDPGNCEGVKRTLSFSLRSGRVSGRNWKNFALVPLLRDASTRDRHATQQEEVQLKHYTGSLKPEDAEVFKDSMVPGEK
T3 sequence (O35433 whole entry): as above
T1 sequence (F1RLJ0 1-841): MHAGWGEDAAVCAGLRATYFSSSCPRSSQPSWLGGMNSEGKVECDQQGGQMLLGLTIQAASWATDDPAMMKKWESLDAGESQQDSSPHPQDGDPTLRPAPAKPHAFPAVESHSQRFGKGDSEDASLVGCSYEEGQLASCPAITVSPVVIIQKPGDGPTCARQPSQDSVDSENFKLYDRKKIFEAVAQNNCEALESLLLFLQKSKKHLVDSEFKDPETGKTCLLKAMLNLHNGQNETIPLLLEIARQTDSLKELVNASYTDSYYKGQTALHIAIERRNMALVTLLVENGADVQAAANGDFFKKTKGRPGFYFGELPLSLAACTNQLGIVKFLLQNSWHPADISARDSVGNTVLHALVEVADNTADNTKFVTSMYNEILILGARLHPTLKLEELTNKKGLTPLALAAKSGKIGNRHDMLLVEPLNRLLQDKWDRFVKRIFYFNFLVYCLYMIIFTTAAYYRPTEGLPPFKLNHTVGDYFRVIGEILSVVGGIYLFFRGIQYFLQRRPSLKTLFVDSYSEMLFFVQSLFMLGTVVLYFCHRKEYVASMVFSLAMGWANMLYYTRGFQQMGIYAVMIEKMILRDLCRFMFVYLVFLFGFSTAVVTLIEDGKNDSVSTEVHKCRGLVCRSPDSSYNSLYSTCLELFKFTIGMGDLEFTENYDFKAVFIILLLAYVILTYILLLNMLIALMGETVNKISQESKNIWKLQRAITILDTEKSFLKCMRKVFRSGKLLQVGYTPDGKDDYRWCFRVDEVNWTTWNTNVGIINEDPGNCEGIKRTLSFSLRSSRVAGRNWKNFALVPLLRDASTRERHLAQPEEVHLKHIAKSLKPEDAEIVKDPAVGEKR

Molecule: COc1cc(CCC(C)=O)ccc1O [zingerone]
- activity at 30 µM [1, 11]: 92 ± 7%
- inhibition of [^3H]RTX binding ([1]; pig DRG): does not inhibit or does so more weakly
- activity at 30 µM ([2]; rat Gasser ggl, 30 μM): 111%

Molecule: COc1cc(CNC(=O)CCCCCCC(C)C)ccc1O [dihydrocapsaicin]
- inhibition of [^3H]RTX binding ([1]; pig DRG): inhibits to a similar degree as does capsaicin
- % of specific [^3H]RTX binding measured in the absence of the tested compound ± SEM ([1]; pig DRG, 30 μM, 10 min): 33 ± 5%
- % of specific [^3H]RTX binding measured in the absence of the tested compound ± SEM ([2]; rat Gasser ggl, 30 μM): 22%

Molecule: CNC[C@H](O)c1ccc(O)c(O)c1 [epinephrine]
- competition for [^3H]RTX binding sites [1]: does not compete

Molecule: O=C(/C=C/C=C/c1ccc2c(c1)OCO2)N1CCCCC1 [piperine]
- activity at 30 µM [1, 11]: 109 ± 2%
- inhibition of [^3H]RTX binding ([1]; pig DRG): does not inhibit or does so more weakly
- activity at 30 µM ([2]; rat Gasser ggl, 30 μM): 118%

Molecule: NCCc1ccc(O)c(O)c1 [dopamine]
- competition for [^3H]RTX binding sites [1]: does not compete

Molecule: N.N.N.N.N.N.N.N.N.N.N.N.N.N.[Cl-].[Cl-].[Cl-].[Cl-].[Cl-].[Cl-].[O-2].[O-2].[Ru+3].[Ru+3].[Ru+4] [ruthenium red]
- inhibition of / competition for [^3H]RTX binding (words) [1]: fails to compete
- inhibition of / competition for [^3H]RTX binding (words) ([1]; listed as Ruthenium red): fails to inhibit
- % of specific [^3H]RTX binding measured in the absence of the tested compound ± SEM ([1]; pig DRG (by column position), 10 μM, n = 2): 109%
- effect on (capsaicin) desensitization [3]: block capsaicin desensitization; also recorded: blocks the desensitization

Molecule: CCCC(=O)O[C@@H]1[C@@H](C)[C@@]2(O)[C@@H](C=C(CO)C[C@]3(O)C(=O)C(C)=C[C@@H]23)[C@@H]2C(C)(C)[C@]12OC(=O)CCC [PDBu, phorbol 12,13-dibutyrate]
- activity at 0.2 µM [4]: 106 ± 9%
- activity at 0.2 µM ([1]; 10 min, read-out: % of specific [^3H]RTX binding measured in the absence of the tested compound ± SEM): 100 ± 2%
- inhibition of specific [^3H]RTX binding [1]: inhibited neither

Molecule: COc1cc(CNC(=O)CCCC/C=C/C(C)C)ccc1O [capsaicin]
- Ki [1]: 14000 ± 2000 nM
- % of specific [^3H]RTX binding measured in the absence of the tested compound ± SEM ([1]; pig DRG, 30 μM, 10 min): 28 ± 4%
- % of specific [^3H]RTX binding measured in the absence of the tested compound ± SEM ([2]; gasser ganglia membranes, 30 µM): 30 ± 11
- inhibition of NADH-Coenzyme Q oxidoreductase [5]: inhibited at high capsaicin concentrations

Molecule: C=C(C)[C@]12C[C@@H](C)[C@@]34O[C@](Cc5ccccc5)(O[C@@H]1[C@@H]3C=C(COC(=O)Cc1ccc(O)c(OC)c1)C[C@]1(O)C(=O)C(C)=C[C@@H]41)O2 [RTX, resiniferatoxin]
- Ki ([4]; rat DRG, 60 pM [^3H]RTX, 30 pM to 3 nM non-radioactive RTX, mean±SEM, 3 determinations, read-out: Ki, competition of [^3H]RTX binding): 0.11 ± 0.04 nM
- loss of specific [^3H]RTX binding after addition of excess non-radioactive RTX ([1]; pig DRG membranes, by 10 min at 37° C.): complete loss of specific binding
- Ki ([1]; pig DRG, mean±SEM, 4 determinations, read-out: Ki, inhibition of [^3H]RTX binding): 2.4 ± 0.3 nM
- Ki ([1]; pig DRG, one site model, read-out: Ki (LIGAND analysis)): 2.2 nM
- inhibition of specific [^3H]phorbol 12,13-dibutyrate binding to protein kinase C ([6]; rat DRG preparations): only at uM concentrations
- time to expression of desensitization [7]: 1 to 4 h
- fold more potent than capsaicin / difference in potencies for induction of hypothermia or neurogenic inflammation [8]: 10^3 -10^4 fold
- fold more potent than capsaicin / difference in potencies for induction of hypothermia or neurogenic inflammation ([8]; listed as resiniferatoxin): up to 10^4 fold
- potency for induction of pain relative to capsaicin [9]: comparable in potency

Molecule: C=C(C)[C@]12C[C@@H](C)[C@@]34O[C@](Cc5ccccc5)(O[C@@H]1[C@@H]3C=C(CO)C[C@]1(O)C(=O)C(C)=C[C@@H]41)O2 [ROA, resiniferonol 9,13,14-orthophenylacetate]
- activity at 0.2 µM ([4]; rat DRG, 200 nM): 106%
- activity at 2 µM ([1]; 10 min, pig DRG, 2 μM, read-out: % of specific [^3H]RTX binding measured in the absence of the tested compound ± SEM): 105 ± 6%
- inhibition of specific [^3H]RTX binding [1]: inhibited neither

Molecule: [^3 H]phorbol 12,13-dibutyrate [[^3 H]PDBu]
- Kd ([6]; rat DRG, read-out: Kd for [^3H]PDBu binding to membrane preparations): 8.5 nM
- Kd [10]: 11.5 nM

Molecule: N[C@@H](Cc1ccc(O)c(O)c1)C(=O)O [L-DOPA]
- competition for [^3H]RTX binding sites ([1]; pig DRG, 100 uM): does not compete

Molecule: NC[C@H](O)c1ccc(O)c(O)c1 [norepinephrine]
- competition for [^3H]RTX binding sites ([1]; pig DRG, 100 uM): does not compete
